Experimental data from US8785468B2, “Phenylalanine amide derivatives useful for treating insulin-related diseases and conditions” (Amgen Inc., priority 2009, dated 2014).
Where a name gives a salt, the structure may show the parent alone.

Target: T1, human receptor found in pancreatic islet cells (Homo sapiens, UniProt Q7Z601)
T1 sequence (Q7Z601 1-462): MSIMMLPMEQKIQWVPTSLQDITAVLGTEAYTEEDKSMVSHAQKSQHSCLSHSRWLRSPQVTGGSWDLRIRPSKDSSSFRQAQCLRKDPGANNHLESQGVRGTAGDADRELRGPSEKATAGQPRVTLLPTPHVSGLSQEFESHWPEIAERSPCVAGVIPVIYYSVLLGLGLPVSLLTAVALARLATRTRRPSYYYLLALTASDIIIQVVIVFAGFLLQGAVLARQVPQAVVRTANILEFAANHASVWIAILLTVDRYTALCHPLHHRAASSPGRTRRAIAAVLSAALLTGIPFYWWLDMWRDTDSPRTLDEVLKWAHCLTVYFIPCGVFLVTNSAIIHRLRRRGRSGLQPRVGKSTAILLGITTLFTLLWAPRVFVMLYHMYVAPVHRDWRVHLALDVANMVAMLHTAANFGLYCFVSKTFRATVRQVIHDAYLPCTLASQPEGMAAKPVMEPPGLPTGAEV
Test: Activation of intracellular IP3 signaling in transfected cells (Activation Assay)
Assay type: cell-based
Conditions: calculated from IP3 concentration measurements in cells transfected with the human receptor
Experimental: Table 12 provides exemplary compounds that were prepared and assessed, following protocols known to those of skilled in the art, for activation of intracellular inositol trisphosphate (IP3) signaling pathways that lead to elevation of intracellular calcium concentration. EC50 values provided in Table 12 were calculated from IP3 concentration measurements in cells transfected with a human receptor found in pancreatic islet cells, inter alia.

SMILES | EC50 [nM]
O=C(Nc1cccc(-c2cn[nH]c2)c1)[C@H](Cc1ccccc1)NCc1cscn1 [Example 33, (2S)—N-(3-(1H-Pyrazol-4-yl)phenyl)-3-phenyl-2-(thiazol-4-ylmethylamino)propanamide] | 100 to 1000
COc1ncc(-c2cn[nH]c2)cc1NC(=O)[C@H](Cc1ccccc1)NCc1ccccn1 [Example 15.2, (2S)—N-(2-methoxy-5-(1H-pyrazol-4-yl)pyridin-3-yl)-3-phenyl-2-(pyridin-2-ylmethylamino)propanamide] | 100 to 1000
O=C(Nc1cccc(-c2ccncc2)c1)[C@H](Cc1ccccc1)NCc1cnco1 [Example 34.15, (S)-2-(Oxazol-5-ylmethylamino)-3-phenyl-N-(3-(pyridin-4-yl)phenyl)propanamide] | 1000 to 10000
O=C(O)CN[C@@H](Cc1ccccc1)C(=O)Nc1cc(-c2ccncc2)nn1CC(F)(F)F [Example 24, (S)-2-(1-Oxo-3-phenyl-1-(3-(pyridin-4-yl)-1-(2,2,2-trifluoroethyl)-1H-pyrazol-5-ylamino)propan-2-ylamino)acetic acid] | < 50
O=C(Nc1nnc(-c2ccncc2)s1)[C@H](Cc1cccc(F)c1)NCc1cscn1 [Example 1.6, (S)-3-(3-fluorophenyl)-N-(5-(pyridin-4-yl)-1,3,4-thiadiazol-2-yl)-2-(thiazol-4-ylmethylamino)propanamide] | 50 to 100
CC(C)N[C@@H](Cc1ccccc1)C(=O)Nc1cccc(-c2ccncc2)c1 [Example 34.13, (S)-2-(Isopropylamino)-3-phenyl-N-(3-(pyridin-4-yl)phenyl)propanamide] | 1000 to 10000
O=C(Nc1cccc(-c2ccncc2)c1)[C@H](Cc1ccccc1)NCc1cscn1 [Example 34.14, (S)-3-Phenyl-N-(3-(pyridin-4-yl)phenyl)-2-(thiazol-4-ylmethylamino)propanamide] | 50 to 100
O=C(Nc1cccc(-c2ccncc2)c1)[C@H](Cc1ccccc1)NCC1CCOC1 (stereo partly drawn) [Example 34.11, (2S)-3-Phenyl-N-(3-(pyridin-4-yl)phenyl)-2-((tetrahydrofuran-3-yl)methylamino)propanamide TFA salt] | 1000 to 10000
CC(C)(C)OC(=O)CN[C@@H](Cc1ccc(F)cc1)C(=O)Nc1cccc(-c2ccncc2)c1 [Example 34.4] | 50 to 100
O=C([C@H](Cc1ccccc1)NCc1cscn1)N1CCc2c(-c3n[nH]c(=O)o3)cc(-c3ccncc3)cc21 [Example 57, (S)-5-(1-(3-Phenyl-2-(thiazol-4-ylmethylamino)propanoyl)-6-(pyridin-4-yl)indolin-4-yl)-1,3,4-oxadiazol-2(3H)-oneTFA salt] | 50 to 100
COc1cc(NC(=O)[C@H](Cc2ccccc2)NCc2cscn2)cc(-c2ccnc(C)c2)n1 [Example 41.6, (2S)—N-(2-Methoxy-6-(2-methylpyridin-4-yl)pyridin-4-yl)-3-phenyl-2-(thiazol-4-ylmethylamino)propanamide] | 100 to 1000
N[C@@H](Cc1ccccc1)C(=O)Nc1cc(-c2ccncc2)c[nH]c1=O [Example 25.2, (S)-2-amino-N-(2-oxo-5-(pyridin-4-yl)-1,2-dihydropyridin-3-yl)-3-phenylpropanamide diTFA] | 1000 to 10000
O=C(Nc1cc(-c2ccncc2)cc(C(F)(F)C(=O)O)c1)[C@H](Cc1ccccc1)NCc1cscn1 [Example 52, (S)-2,2-difluoro-2-(3-(3-phenyl-2-(thiazol-4-ylmethylamino)propanamido)-5-(pyridin-4-yl)phenyl)acetic acid] | 100 to 1000
CCCn1nc(-c2ccnc(NC)c2)cc1NC(=O)[C@H](Cc1ccc(F)cc1)NCc1cscn1 [Example 42, (2S)-3-(4-fluorophenyl)-N-(3-(2-(methylamino)pyridin-4-yl)-1-propyl-1H-pyrazol-5-yl)-2-(thiazol-4-ylmethylamino)propanamide] | < 50
O=C(Nc1cccc(-c2ccncc2)c1)[C@@H](Cc1ccccc1)NCc1cncs1 [Example 34.6, (R)-3-Phenyl-N-(3-(pyridin-4-yl)phenyl)-2-(thiazol-5-ylmethylamino)propanamide trifluoroacetate] | 1000 to 10000
Cc1cc(-c2cc(NC(=O)[C@H](Cc3ccc(F)cc3)NCC(=O)O)[nH]n2)ccn1 [Example 21.2, 2-((S)-3-(4-Fluorophenyl)-1-(3-(2-methylpyridin-4-yl)-1H-pyrazol-5-ylamino)-1-oxopropan-2-ylamino)acetic acid dihydrochloride] | < 50
CNc1cc(-c2cc(NC(=O)[C@H](Cc3ccccc3)NCc3cscn3)n(C)n2)ccn1 [Example 23.10, (2S)—N-(1-methyl-3-(2-(methylamino)pyridin-4-yl)-1H-pyrazol-5-yl)-3-phenyl-2-(thiazol-4-ylmethylamino)propanamide] | < 50
Cn1nc(-c2ccncc2)cc1NC(=O)[C@H](Cc1ccccc1)NCc1ccccn1 [Example 17.3, (S)—N-(1-Methyl-3-(pyridin-4-yl)-1H-pyrazol-5-yl)-3-phenyl-2-(pyridin-2-ylmethylamino)propanamide] | 50 to 100
CCn1nc(-c2ccncc2)cc1NC(=O)[C@H](Cc1ccc(F)cc1)NCc1cscn1 [Example 20.1, (S)—N-(1-ethyl-3-(pyridine-4-yl)-1H-pyrazol-5-yl)-3-(4-fluorophenyl)-2-(thiazol-4-ylmethlamino)propanamide] | < 50
O=C(Nc1cccc(-c2ccncc2)c1)[C@H](Cc1ccccc1)NCc1cncs1 [Example 34.17, (S)-3-Phenyl-N-(3-(pyridin-4-yl)phenyl)-2-(thiazol-5-ylmethylamino)propanamide] | 100 to 1000
CCn1nc(-c2ccncc2)cc1NC(=O)[C@H](Cc1ccccc1)N[C@H](C)C(=O)O [Example 20.3, (R)-2-((S)-1-(1-Ethyl-3-(pyridin-4-yl)-1H-pyrazol-5-ylamino)-1-oxo-3-phenylpropan-2-ylamino)propanoic acid] | 1000 to 10000
CCOCCN[C@@H](Cc1ccc(F)cc1)C(=O)Nc1cc(-c2ccnc(NC)c2)nn1C [Example 23.3, (2S)-2-(2-Ethoxyethylamino)-3-(4-fluorophenyl)-N-(1-methyl-3-(2-(methylamino)pyridin-4-yl)-1H-pyrazol-5-yl)propanamide] | 100 to 1000
CNC(=O)c1cc(-c2ccncc2)cc2c1CCN2C(=O)[C@H](Cc1ccccc1)NCc1cscn1 [Example 62, (S)—N-Methyl-1-(3-phenyl-2-(thiazol-4-ylmethylamino)propanoyl)-6-(pyridin-4-yl)indoline-4-carboxamide] | 100 to 1000
CNc1cc(-c2cc(NC(=O)[C@@H](N)Cc3ccc(F)cc3)n(C(C)C)n2)ccn1 [Example 43.1, (2S)-2-Amino-3-(4-fluorophenyl)-N-(1-isopropyl-3-(2-(methylamino)pyridin-4-yl)-1H-pyrazol-5-yl)propanamide] | 100 to 1000
CNc1cc(-c2nnc(NC(=O)[C@H](Cc3ccccc3)NCc3cscn3)s2)ccn1 [Example 8.1] | < 50
O=C([C@H](Cc1ccccc1)NCc1ccccn1)N1CCc2ccc(-c3ccncc3)cc21 [Example 50, (S)-3-Phenyl-2-(pyridin-2-ylmethylamino)-1-(6-(pyridin-4-yl)indolin-1-yl)propan-1-one TFA Salt] | 100 to 1000
COc1ncc(-c2cc[nH]n2)cc1NC(=O)[C@H](Cc1ccccc1)NC1(c2cscn2)CC1 [Example 14.2] | 100 to 1000
